# Measurements from the OligoGym collection.
# HELM strings list units from the 5' end as sugar, base in round brackets, then linkage (d deoxyribose, r ribose, m 2'-O-methyl, p phosphodiester). Strings are as the collection lists them; they lack the last nucleoside at the 3' end of the tested compound. [moe] = 2'-O-(2-methoxyethyl) (MOE); [sp] = phosphorothioate linkage; [m5C] = 5-methylcytosine
# Biological target: SCN2A
# Experiment: mouse, dose not given
# Details: ASO
row,Substance,3 h FOB score
1,RNA1{[moe](A)[sp].[moe]([m5C])p.[moe]([m5C])p.[moe]([m5C])p.[moe](A)p.d(G)[sp].d(T)[sp].d(T)[sp].d(T)[sp].d(T)[sp].d(T)[sp].d(T)[sp].d([m5C])[sp].d(A)[sp].d(T)[sp].[moe](T)p.[moe](G)p.[moe]([m5C])[sp].[moe](A)}$$$$ (last 3' nucleoside missing),0 score 0-7
2,RNA1{[moe](G)[sp].[moe](A)p.[moe](A)p.[moe](A)p.[moe](G)p.d(T)[sp].d(A)[sp].d(G)[sp].d(T)[sp].d(A)[sp].d([m5C])[sp].d([m5C])[sp].d(A)[sp].d(T)[sp].d(T)[sp].[moe]([m5C])p.[moe]([m5C])p.[moe]([m5C])[sp].[moe](A)}$$$$ (last 3' nucleoside missing),1.67 score 0-7
3,RNA1{[moe](G)[sp].[moe](A)p.[moe](A)p.[moe](T)p.[moe](T)p.[moe]([m5C])p.d(T)[sp].d(A)[sp].d(T)[sp].d(T)[sp].d(T)[sp].d(T)[sp].d(A)[sp].d(T)[sp].d(A)[sp].d(A)[sp].[moe](A)p.[moe](T)[sp].[moe](G)}$$$$ (last 3' nucleoside missing),1 score 0-7
4,RNA1{[moe](G)[sp].[moe](A)p.[moe](A)p.[moe](T)p.[moe](T)p.d([m5C])[sp].d(T)[sp].d(A)[sp].d(T)[sp].d(T)[sp].d(T)[sp].d(T)[sp].d(A)[sp].d(T)[sp].d(A)[sp].[moe](A)p.[moe](A)p.[moe](T)[sp].[moe](G)}$$$$ (last 3' nucleoside missing),1 score 0-7
5,RNA1{[moe](G)[sp].[moe](A)p.[moe](A)p.[moe](T)p.d(T)[sp].d([m5C])[sp].d(T)[sp].d(A)[sp].d(T)[sp].d(T)[sp].d(T)[sp].d(T)[sp].d(A)[sp].d(T)[sp].[moe](A)p.[moe](A)p.[moe](A)p.[moe](T)[sp].[moe](G)}$$$$ (last 3' nucleoside missing),0.67 score 0-7
6,RNA1{[moe](G)[sp].[moe](A)p.[moe](G)p.[moe](A)p.[moe](G)p.d(A)[sp].d(T)[sp].d(T)[sp].d(G)[sp].d([m5C])[sp].d(T)[sp].d(T)[sp].d(T)[sp].d([m5C])[sp].d([m5C])[sp].[moe]([m5C])p.[moe](T)p.[moe](T)[sp].[moe](T)}$$$$ (last 3' nucleoside missing),1.33 score 0-7
7,RNA1{[moe](G)[sp].[moe](A)p.[moe](G)p.[moe](A)p.[moe](T)p.d(T)[sp].d(G)[sp].d([m5C])[sp].d(T)[sp].d(T)[sp].d(T)[sp].d([m5C])[sp].d([m5C])[sp].d([m5C])[sp].d(T)[sp].[moe](T)p.[moe](T)p.[moe](A)[sp].[moe](T)}$$$$ (last 3' nucleoside missing),1 score 0-7
8,RNA1{[moe](G)[sp].[moe](A)p.[moe]([m5C])p.[moe](A)p.[moe](T)p.d(A)[sp].d(T)[sp].d(T)[sp].d(T)[sp].d(T)[sp].d(T)[sp].d([m5C])[sp].d(T)[sp].d(A)[sp].d([m5C])[sp].[moe](A)p.[moe]([m5C])p.[moe](T)[sp].[moe](G)}$$$$ (last 3' nucleoside missing),1.67 score 0-7
9,RNA1{[moe](G)[sp].[moe](A)p.[moe]([m5C])p.[moe](A)p.d(T)[sp].d(A)[sp].d(T)[sp].d(T)[sp].d(T)[sp].d(T)[sp].d(T)[sp].d([m5C])[sp].d(T)[sp].d(A)[sp].[moe]([m5C])p.[moe](A)p.[moe]([m5C])p.[moe](T)[sp].[moe](G)}$$$$ (last 3' nucleoside missing),1 score 0-7
10,RNA1{[moe](G)[sp].[moe](A)p.[moe]([m5C])p.[moe]([m5C])p.[moe](A)p.[moe]([m5C])p.d(G)[sp].d([m5C])[sp].d(T)[sp].d(T)[sp].d(A)[sp].d([m5C])[sp].d(A)[sp].d(T)[sp].d([m5C])[sp].d(A)[sp].[moe](A)p.[moe](A)[sp].[moe]([m5C])}$$$$ (last 3' nucleoside missing),0 score 0-7
11,RNA1{[moe](G)[sp].[moe](A)p.[moe]([m5C])p.[moe]([m5C])p.[moe](G)p.[moe](A)p.d(A)[sp].d(T)[sp].d(T)[sp].d([m5C])[sp].d(T)[sp].d(A)[sp].d(T)[sp].d(T)[sp].d(T)[sp].d(T)[sp].[moe](A)p.[moe](T)[sp].[moe](A)}$$$$ (last 3' nucleoside missing),0 score 0-7
12,RNA1{[moe](G)[sp].[moe](A)p.[moe]([m5C])p.[moe]([m5C])p.[moe](G)p.[moe](T)p.d([m5C])[sp].d(T)[sp].d([m5C])[sp].d(T)[sp].d(T)[sp].d(T)[sp].d([m5C])[sp].d(T)[sp].d(T)[sp].d(A)[sp].[moe](T)p.[moe](T)[sp].[moe](T)}$$$$ (last 3' nucleoside missing),0 score 0-7
13,RNA1{[moe](G)[sp].[moe](A)p.[moe]([m5C])p.[moe]([m5C])p.[moe](G)p.d(A)[sp].d(A)[sp].d(T)[sp].d(T)[sp].d([m5C])[sp].d(T)[sp].d(A)[sp].d(T)[sp].d(T)[sp].d(T)[sp].[moe](T)p.[moe](A)p.[moe](T)[sp].[moe](A)}$$$$ (last 3' nucleoside missing),1 score 0-7
14,RNA1{[moe](G)[sp].[moe](A)p.[moe]([m5C])p.[moe]([m5C])p.[moe](G)p.d(T)[sp].d([m5C])[sp].d(T)[sp].d([m5C])[sp].d(T)[sp].d(T)[sp].d(T)[sp].d([m5C])[sp].d(T)[sp].d(T)[sp].[moe](A)p.[moe](T)p.[moe](T)[sp].[moe](T)}$$$$ (last 3' nucleoside missing),0 score 0-7
15,RNA1{[moe](G)[sp].[moe](A)p.[moe]([m5C])p.[moe]([m5C])p.d(A)[sp].d([m5C])[sp].d(G)[sp].d([m5C])[sp].d(T)[sp].d(T)[sp].d(A)[sp].d([m5C])[sp].d(A)[sp].d(T)[sp].[moe]([m5C])p.[moe](A)p.[moe](A)p.[moe](A)[sp].[moe]([m5C])}$$$$ (last 3' nucleoside missing),4 score 0-7
16,RNA1{[moe](G)[sp].[moe](A)p.[moe]([m5C])p.[moe]([m5C])p.d(G)[sp].d(A)[sp].d(A)[sp].d(T)[sp].d(T)[sp].d([m5C])[sp].d(T)[sp].d(A)[sp].d(T)[sp].d(T)[sp].[moe](T)p.[moe](T)p.[moe](A)p.[moe](T)[sp].[moe](A)}$$$$ (last 3' nucleoside missing),0 score 0-7
17,RNA1{[moe](G)[sp].[moe](A)p.[moe]([m5C])p.[moe]([m5C])p.d(G)[sp].d(T)[sp].d([m5C])[sp].d(T)[sp].d([m5C])[sp].d(T)[sp].d(T)[sp].d(T)[sp].d([m5C])[sp].d(T)[sp].[moe](T)p.[moe](A)p.[moe](T)p.[moe](T)[sp].[moe](T)}$$$$ (last 3' nucleoside missing),0 score 0-7
18,RNA1{[moe](G)[sp].[moe](G)p.[moe](A)p.[moe](T)p.[moe](A)p.d(G)[sp].d(T)[sp].d(G)[sp].d([m5C])[sp].d(T)[sp].d([m5C])[sp].d([m5C])[sp].d(A)[sp].d(T)[sp].d(A)[sp].[moe](G)p.[moe]([m5C])p.[moe]([m5C])[sp].[moe](A)}$$$$ (last 3' nucleoside missing),2 score 0-7
19,RNA1{[moe](G)[sp].[moe](G)p.[moe](A)p.[moe]([m5C])p.d([m5C])[sp].d(G)[sp].d(T)[sp].d([m5C])[sp].d(T)[sp].d([m5C])[sp].d(T)[sp].d(T)[sp].d(T)[sp].d([m5C])[sp].[moe](T)p.[moe](T)p.[moe](A)p.[moe](T)[sp].[moe](T)}$$$$ (last 3' nucleoside missing),1 score 0-7
20,RNA1{[moe](G)[sp].[moe](G)p.[moe](G)p.[moe](A)p.[moe](T)p.d(A)[sp].d(G)[sp].d(T)[sp].d(G)[sp].d([m5C])[sp].d(T)[sp].d([m5C])[sp].d([m5C])[sp].d(A)[sp].d(T)[sp].[moe](A)p.[moe](G)p.[moe]([m5C])[sp].[moe]([m5C])}$$$$ (last 3' nucleoside missing),1.33 score 0-7
21,RNA1{[moe](G)[sp].[moe](G)p.[moe](T)p.[moe]([m5C])p.[moe](T)p.d([m5C])[sp].d(T)[sp].d(T)[sp].d(A)[sp].d(G)[sp].d([m5C])[sp].d(T)[sp].d(T)[sp].d(T)[sp].d([m5C])[sp].[moe](T)p.[moe]([m5C])p.[moe](T)[sp].[moe](T)}$$$$ (last 3' nucleoside missing),4 score 0-7
22,RNA1{[moe](G)[sp].[moe](T)p.[moe](A)p.[moe](A)p.[moe]([m5C])p.[moe]([m5C])p.d(T)[sp].d(T)[sp].d(T)[sp].d(A)[sp].d(T)[sp].d(A)[sp].d([m5C])[sp].d(A)[sp].d(T)[sp].d(T)[sp].[moe](T)p.[moe](A)[sp].[moe](A)}$$$$ (last 3' nucleoside missing),0 score 0-7
23,RNA1{[moe](G)[sp].[moe](T)p.[moe](A)p.[moe](A)p.[moe]([m5C])p.d([m5C])[sp].d(T)[sp].d(T)[sp].d(T)[sp].d(A)[sp].d(T)[sp].d(A)[sp].d([m5C])[sp].d(A)[sp].d(T)[sp].[moe](T)p.[moe](T)p.[moe](A)[sp].[moe](A)}$$$$ (last 3' nucleoside missing),0.33 score 0-7
24,RNA1{[moe](G)[sp].[moe](T)p.[moe](A)p.[moe](A)p.d(T)[sp].d([m5C])[sp].d(A)[sp].d([m5C])[sp].d(T)[sp].d(T)[sp].d(T)[sp].d([m5C])[sp].d(A)[sp].d(T)[sp].[moe]([m5C])p.[moe]([m5C])p.[moe](A)p.[moe]([m5C])[sp].[moe](G)}$$$$ (last 3' nucleoside missing),2 score 0-7
25,RNA1{[moe](G)[sp].[moe](T)p.[moe](A)p.[moe](A)p.d([m5C])[sp].d([m5C])[sp].d(T)[sp].d(T)[sp].d(T)[sp].d(A)[sp].d(T)[sp].d(A)[sp].d([m5C])[sp].d(A)[sp].[moe](T)p.[moe](T)p.[moe](T)p.[moe](A)[sp].[moe](A)}$$$$ (last 3' nucleoside missing),0 score 0-7
26,RNA1{[moe](G)[sp].[moe](T)p.[moe](T)p.[moe](T)p.d(T)[sp].d(T)[sp].d(T)[sp].d([m5C])[sp].d(A)[sp].d(T)[sp].d(T)[sp].d(G)[sp].d([m5C])[sp].d(A)[sp].[moe](T)p.[moe]([m5C])p.[moe]([m5C])p.[moe](T)[sp].[moe]([m5C])}$$$$ (last 3' nucleoside missing),1 score 0-7
